The values that follow come from ChEMBL document CHEMBL3792276, “Design and synthesis of diamide-coupled benzophenones as potential anticancer agents” (Eur J Med Chem, 2016).

For orientation: IC50 means the concentration that inhibits the measured activity by half. What is called inhibition in vivo is the drop in the measured response relative to a control, in per cent.

Assay [1] has as its system A549. As to the kind of experiment: Cytotoxicity against human A549 cells after 48 hrs by MTT assay. The assay is classed as functional, cell-based. Background: Formazan colour is commonly taken as a measure of viable cells.
The subject of assay [2] is MCF7. As to the kind of experiment: Cytotoxicity against human MCF7 cells after 48 hrs by MTT assay. The assay is classed as functional, cell-based.
The subject of assay [3] is DLA. The experiment in a line: (§1) Cytotoxicity against mouse DLA cells after 48 hrs by MTT assay. It is filed as functional, cell-based.
The test system of assay [4] is A549. As to the kind of experiment: Cytotoxicity against human A549 cells after 48 hrs by LDH leak assay. It is filed as functional, cell-based.
The test system of assay [5] is MCF7. The experiment in a line: Cytotoxicity against human MCF7 cells after 48 hrs by LDH leak assay. The assay is classed as functional, cell-based.
Assay [6] relates to DLA. As to the kind of experiment: (§2) Cytotoxicity against mouse DLA cells after 48 hrs by LDH leak assay. It is filed as functional, cell-based.
The test system of assay [7] is A549. The experiment in a line: Cytotoxicity against human A549 cells after 48 hrs by trypan blue assay. It is filed as functional, cell-based.
The test system of assay [8] is MCF7. The experiment in a line: Cytotoxicity against human MCF7 cells after 48 hrs by trypan blue assay. It is filed as functional, cell-based.
Assay [9] relates to DLA. As to the kind of experiment: (§3) Cytotoxicity against mouse DLA cells after 48 hrs by trypan blue assay. It is filed as functional, cell-based.
A short description of assay [10]: as §1. It is filed as functional, cell-based.
Assay [11] in a line: as §2. It is filed as functional, cell-based.
The nature of assay [12]: as §3. The assay is classed as functional, cell-based.
Assay [13] can be described thus: Antitumor activity against mouse DLA cells allografted in Swiss albino mouse assessed as inhibition of tumor growth at 75 mg/kg, ip administered as 3 doses on alternative days post 4 days of tumor implantation measured after final dose of drug challenge. The assay is classed as functional. The following applies: 96 h.
Assay [14] concerns Mus musculus. As to the kind of experiment: Decrease in ascites fluid secretion in Swiss albino mouse allografted with mouse DLA cells at 75 mg/kg, ip administered as 3 doses on alternative days post 4 days of tumor implantation. The assay is classed as functional, organism-based.
The subject of assay [15] is Mus musculus. The experiment in a line: Decrease in cell count Swiss albino mouse allografted with mouse DLA cells at 75 mg/kg, ip administered as 3 doses on alternative days post 4 days of tumor implantation. It is filed as functional, organism-based.
Assay [16] in a line: Antitumor activity against mouse DLA cells allografted in Swiss albino mouse assessed as induction of tumor regression at 75 mg/kg, ip administered as 3 doses on alternative days post 4 days of tumor implantation. It is filed as functional.
Assay [17] can be described thus: Antitumor activity against mouse DLA cells allografted in Swiss mouse assessed as increase in animal survival time at 75 mg/kg, ip administered as 3 doses on alternative days post 4 days of tumor implantation. The assay is classed as functional.
The species named for assay [18] is Mus musculus. The experiment in a line: Antiangiogenic activity against Swiss albino mouse allografted with mouse DLA cells assessed as decrease in peritoneal angiogenesis measured as […]. The assay is classed as functional.
The test system of another assay is Chorioallantoic membrane. As to the kind of experiment: Antiangiogenic activity in chicken chorioallantoic membrane assessed as inhibition of rVEGF-induced neovascularization measured upto 12 days. The assay is classed as functional. The following applies: Gallus gallus.

Calls of active or inactive are those of the source. The calls are words filed in the database; no cut-off is given here.

For the compound `Cc1cc(C(=O)c2ccccc2)ccc1OCC(=O)Nc1ccccc1NC(=O)COc1ccc(C(=O)c2ccccc2)cc1C`, the outcome in the assay on A549 [1], with MCF7 [2], in the assay with DLA [3], in the assay on A549 [4], in the assay with MCF7 [5] and in the assay on DLA [6] was inactive. Moreover, the result in the assay with A549 [7], in the assay with MCF7 [8] and with DLA [9] was inactive.
`Cc1cc(C(=O)c2ccccc2)ccc1OCC(=O)Nc1ccccc1NC(=O)COc1cc(C)c(C(=O)c2ccccc2)cc1C`: the result in the assay on A549 [1], with MCF7 [2], with DLA [3], in the assay on A549 [4], in the assay with MCF7 [5] and with DLA [6] was inactive. Besides, the outcome with A549 [7], in the assay with MCF7 [8] and in the assay on DLA [9] was inactive.
Regarding `Cc1cc(C(=O)c2ccc(Br)cc2)ccc1OCC(=O)Nc1ccccc1NC(=O)COc1c(F)cc(C(=O)c2ccc(Cl)cc2)cc1Cl`, the result in the assay with A549 [1], in the assay with MCF7 [2], in the assay with DLA [3], in the assay on A549 [4], in the assay with MCF7 [5] and with DLA [6] was inactive. Besides, the result with A549 [7], in the assay with MCF7 [8] and in the assay with DLA [9] was inactive.
Take `Cc1cc(C(=O)c2ccc(Br)cc2)ccc1OCC(=O)Nc1ccccc1NC(=O)COc1ccc(C(=O)c2ccccc2C)cc1C`: the IC50 is 20 µM in the assay on A549 [1] (A549, 48 h); 23 µM in the assay on MCF7 [2] (MCF7, 48 h); 23 µM in assay [10]; 20 µM with A549 [4] (A549, 48 h); 23 µM in the assay with MCF7 [5] (MCF7, 48 h); 23 µM in assay [11]. Further, the IC50 with A549 [7] (A549, 48 h) came to 20 µM; with MCF7 [8] (MCF7, 48 h) it was 23 µM; in assay [12], 23 µM. In [13], the inhibition in vivo at 75 mg/kg was found to be 80%. In addition, the inhibition result with Mus musculus [14], in the assay with Mus musculus [15] and in the assay on Chorioallantoic membrane was “Active” in each case. Further, in assay [16], the “fold change (FC)” value stood at 2.5. Moreover, in assay [17], the MST is 37 days. Moreover, the “inhibition (INH)” value in the assay listed under Mus musculus [18] is given as greater than 50%.
As for `Cc1cc(C(=O)c2ccccc2)ccc1OCC(=O)Nc1ccccc1NC(=O)COc1ccc(C(=O)c2ccccc2C)cc1C`, the result in the assay with A549 [1], in the assay on MCF7 [2], with DLA [3], in the assay with A549 [4], in the assay with MCF7 [5] and in the assay with DLA [6] was inactive. Moreover, the outcome in the assay on A549 [7], with MCF7 [8] and with DLA [9] was inactive.
As for `Cc1cc(C(=O)c2ccc(Br)cc2)ccc1OCC(=O)Nc1ccccc1NC(=O)COc1ccc(C(=O)c2ccc(Br)cc2)cc1C`, the outcome in the assay on A549 [1], in the assay with MCF7 [2], in the assay with DLA [3], in the assay on A549 [4], in the assay with MCF7 [5] and in the assay on DLA [6] was inactive. The result in the assay with A549 [7], with MCF7 [8] and in the assay with DLA [9] was inactive.
As to `Cc1cc(C(=O)c2ccccc2)ccc1OCC(=O)Nc1ccccc1NC(=O)COc1c(F)cc(C(=O)c2ccc(Cl)cc2)cc1Cl`, the result in the assay on A549 [1], in the assay with MCF7 [2], in the assay with DLA [3], in the assay on A549 [4], in the assay on MCF7 [5] and with DLA [6] was inactive. Besides, the result in the assay on A549 [7], in the assay on MCF7 [8] and in the assay on DLA [9] was inactive.
As for `Cc1cc(C(=O)c2ccc(Br)cc2)ccc1OCC(=O)Nc1ccccc1NC(=O)COc1cc(C)c(C(=O)c2ccccc2)cc1C`, the result in the assay on A549 [1], in the assay on MCF7 [2], with DLA [3], with A549 [4], in the assay on MCF7 [5] and in the assay on DLA [6] was inactive. Also, the outcome in the assay with A549 [7], in the assay on MCF7 [8] and in the assay on DLA [9] was inactive.
For `Cc1cc(C(=O)c2ccccc2)ccc1OCC(=O)Nc1ccccc1NC(=O)COc1ccc(C(=O)c2ccc(Br)cc2)cc1C`, the outcome in the assay with A549 [1], in the assay on MCF7 [2], in the assay on DLA [3], in the assay on A549 [4], in the assay on MCF7 [5] and with DLA [6] was inactive. The outcome in the assay on A549 [7], in the assay with MCF7 [8] and with DLA [9] was inactive.
As to `Cc1ccc(C(=O)c2ccc(OCC(=O)Nc3ccccc3NC(=O)COc3ccc(C(=O)c4ccccc4)cc3C)c(C)c2)cc1`, the result with A549 [1], with MCF7 [2], in the assay with DLA [3], in the assay with A549 [4], with MCF7 [5] and in the assay on DLA [6] was inactive. The result in the assay on A549 [7], in the assay with MCF7 [8] and in the assay with DLA [9] was inactive.
As for `O=c1[nH]cc(F)c(=O)[nH]1`, the result in the assay on A549 [1], in the assay on MCF7 [2], in the assay on DLA [3], with A549 [4], in the assay on MCF7 [5] and with DLA [6] was inactive. In addition, the outcome in the assay on A549 [7], in the assay with MCF7 [8] and in the assay with DLA [9] was inactive.
Take `Cc1cc(C(=O)c2ccccc2)c(C)cc1OCC(=O)Nc1ccccc1NC(=O)COc1cc(C)c(C(=O)c2ccccc2)cc1C`: the outcome with A549 [1], in the assay with MCF7 [2], with DLA [3], with A549 [4], with MCF7 [5] and in the assay with DLA [6] was inactive. The outcome with A549 [7], in the assay with MCF7 [8] and with DLA [9] was inactive.
For the compound `Cc1ccc(C(=O)c2ccc(OCC(=O)Nc3ccccc3NC(=O)COc3ccc(C(=O)c4ccc(Br)cc4)cc3C)c(C)c2)cc1`, the outcome in the assay on A549 [1], in the assay on MCF7 [2], in the assay on DLA [3], with A549 [4], in the assay with MCF7 [5] and in the assay on DLA [6] was inactive. Also, the outcome in the assay with A549 [7], with MCF7 [8] and in the assay on DLA [9] was inactive.
